Data: patent publication US10301284B2, “Therapeutic inhibitory compounds” (LifeSci Pharmaceuticals, Inc., priority 2016, dated 2019)
Like-named read-outs stand apart in the source and are kept apart here.

Key:
[1] = target: T1, human Plasma Kallikrein (Homo sapiens (Human), UniProt P03952); test: In vitro enzyme inhibition of human plasma kallikrein (Pro-Phe-Arg-AMC cleavage); format: biochemical
Method: (§1) The ability of the compounds disclosed herein to inhibit human plasma kallikrein activity was quantified according to the procedures below.
A 10 mM solution of the test compound was made in DMSO. This solution was serially diluted 1:5 in DMSO to yield 2000, 400, 80, 16, 3.2, 0.64, 0.128, 0.0256 and 0.00512 μM compound test solutions. A control tube containing only DMSO is included. 16 μL of each compound test solution was combined with 384 μL of assay buffer (50 mM Tris-HCl pH 7.5, 150 mM NaCl, 0.01% Triton X-100) to yield a “4× test compound buffer stock”.
Separately, a 40 nM solution of human Plasma Kallikrein (Abcam) and a 93.6 μM solution Pro-Phe-Arg-AMC (Bachem) were made using assay buffer. These solutions are hereby referred to as 4×hPK and 2×PFR-AMC, respectively.
60 μL of each 4× test compound buffer stock was combined with 60 μL of 4×hPK to yield 120 μL of “2× test compound buffer stock/2×hPK”. 50 μL was removed from this mixture and placed into duplicate wells on a Microfluor 1Black U-bottom microtiter plate (Thermo Scientific). This plate was incubated for 5 minutes at 37° C. To each well, 50 μL of pre-warmed 2×PFR-AMC was added to start the enzymatic reaction. Cleavage of PFR-AMC was monitored in a Biotek Synergy H4 reader set at 37° C. Readings are taken every 43 seconds for 1 hour. The highest mean velocity over 20 reads (˜15 minutes) is used to calculate the IC50. The IC50 is calculated using the Gen5 (Biotek Instruments).
The ability of the compounds listed in Table 2 to inhibit human plasma kallikrein activity was determined.

[2] = target: T1, human Plasma Kallikrein; test: Human whole blood kallikrein inhibition (ellagic acid-activated human plasma, Z-FR-2-AMC substrate); format: biochemical; conditions: human plasma activated with ellagic acid, Z-FR-2-AMC 40 μM, 37° C.; read-out: HWB EC50
Method: as §1
All dilutions were prepared in an assay buffer comprising 50 mM Tris-HCl pH 7.2, 150 mM NaCl, and 0.01% Triton X-100.
Human plasma was thawed on ice and centrifuged for 15 min at 4° C. to remove platelets. A 1 mM stock solution of ellagic acid was diluted to 8 μM and mixed with human plasma, after removing platelets, at a ratio of 1:0.8. The mixture of human plasma and ellagic acid was further diluted 32-fold in the assay buffer, to yield the final mixture for use in the inhibition assay.
A 22.5 μL volume of the final mixture of human plasma and ellagic acid was added to a 96-well microwell plate and the plate was incubated for 15 min at 37° C.
The test compound solution was prepared to provide final concentrations of 20 μM, 5 μM, 1.25 μM, 312.5 nM, 78.125 nM, 19.531 nM, 4.883 nM, 1.221 nM, 0.305 nM, and 0.076 nM. Each test compound concentration was tested in duplicates.
In addition to the inhibitor control and test wells, the 96 well assay plate included positive control wells which contain the mixture of human plasma and ellagic acid without test compounds, and background wells which contain neither the mixture of human plasma and ellagic acid nor the test compounds. The total volume of liquid in positive control and background wells was brought up to 35 μL using the assay buffer.
The assay plate containing test compounds mixed with human plasma and ellagic acid and appropriate controls was incubated at 37° C. for 5 min. A 10 mM stock solution of substrate Z-FR-2-AMC was diluted to 133.2 μM in the assay buffer, and 15 μL of the diluted substrate was added to each well, to yield a final substrate concentration of 40 μM in each well. The reagents were mixed by shaking the plate gently for 30 sec.
The enzyme reaction was quantified by immediate kinetic reading of the assay plate using excitation/emission wavelengths of 330 nm/440 nm respectively. Fluorescence intensity was recorded for 60 min, using a time interval of 43 sec.
The inhibition activity of the test compounds were evaluated using the IC50 values, calculated according to the dose-response curve of the test compounds, fitted using the “log(inhibitor)−response(variable slope)” equation in GraphPadPrism software (GraphPad Software, Inc.).
The percentage inhibition (EC50) was calculated using the following equation:
[formula] where, Mean(BG) is the average value of the fluorescence intensity of the background wells and Mean(PC) is the average value of the fluorescence intensity of the positive control wells.

[3] = Pharmacokinetic evaluation, oral exposure in rats; format: in vivo; conditions: rat; male Sprague-Dawley rats, single oral dose 10 mg/kg via oral gavage, plasma; read-out: AUC
Method: Pharmacokinetic studies of select compounds were performed to assess the pharmacokinetic properties. Male Sprague-Dawley rats were administered a single oral dose of the test compound at 10 mg/kg (dose concentration: 2 mg/mL, dose volume: 5 ml/kg) via oral gavage. Blood samples were collected via jugular vein at pre-dose, post-dose 5 min, 15 min, 30 min, 1 h, 2 h, 4 h, 6 h, 8 h, 10 h and 24 h, and centrifuged (8000 rpm for 6 minutes at 2-8° C.). The resulting plasma fractions were analyzed by LC/MS/MS to determine the concentration of the test compound.

[4] = human plasma kallikrein, PFR-AMC substrate, 37° C., read-out: hPK IC50

T1 sequence (P03952 391-638 limits assumed): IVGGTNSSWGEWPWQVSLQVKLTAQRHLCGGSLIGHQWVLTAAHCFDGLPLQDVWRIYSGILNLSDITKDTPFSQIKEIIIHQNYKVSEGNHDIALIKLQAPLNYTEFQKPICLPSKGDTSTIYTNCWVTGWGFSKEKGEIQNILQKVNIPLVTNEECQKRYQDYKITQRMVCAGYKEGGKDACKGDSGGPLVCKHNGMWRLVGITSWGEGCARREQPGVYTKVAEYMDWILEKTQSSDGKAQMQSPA
T1 sequence (P03952 20-390 partner limits assumed): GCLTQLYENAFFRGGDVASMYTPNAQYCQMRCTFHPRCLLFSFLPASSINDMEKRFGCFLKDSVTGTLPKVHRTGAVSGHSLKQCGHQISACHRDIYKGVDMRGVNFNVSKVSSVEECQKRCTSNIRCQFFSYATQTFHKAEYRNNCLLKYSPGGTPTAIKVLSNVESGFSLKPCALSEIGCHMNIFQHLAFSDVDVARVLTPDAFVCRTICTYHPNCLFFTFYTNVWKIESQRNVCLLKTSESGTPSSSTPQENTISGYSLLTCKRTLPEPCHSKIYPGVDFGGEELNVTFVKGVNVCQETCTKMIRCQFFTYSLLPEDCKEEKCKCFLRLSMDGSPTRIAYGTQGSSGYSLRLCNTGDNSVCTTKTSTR

Row | SMILES | IC50 [1, 4] | other results
1 | Cc1cc(N)nc(C)c1CNC(=O)c1cn(Cc2ccc3ncc(Cl)cc3c2)c2ccc(=O)[nH]c12 [Example 126, N-((6-amino-2,4-dimethylpyridin-3-yl)methyl)-1-((3-chloroquinolin-6-yl)methyl)-5-oxo-4,5-dihydro-1H-pyrrolo[3,2-b]pyridine-3-carboxamide] | < 100 nM | EC50 [2]: < 100 nM
2 | Cc1cc(N)nc(C)c1CNC(=O)c1cnc(Cc2ccc3ncc(Cl)cc3c2)o1 [Example 114, N-((6-amino-2,4-dimethylpyridin-3-yl)methyl)-2-((3-chloroquinolin-6-yl)methyl)oxazole-5-carboxamide] | – | AUC [3]: 1000 to 10000 ng·h/mL; EC50 [2]: < 100 nM
3 | Cc1cc(N)nc(C)c1CNC(=O)c1ccn(Cc2ccc3ncc(Cl)cc3c2)n1 [Example 1, N-((6-amino-2,4-dimethylpyridin-3-yl)methyl)-1-((3-chloroquinolin-6-yl)methyl)-1H-pyrazole-3-carboxamide] | – | AUC [3]: 100 to 1000 ng·h/mL; EC50 [2]: < 100 nM
4 | Cc1cc(N)nc(C)c1CNC(=O)c1nc(Cc2ccc3ncc(Cl)cc3c2)c2ccccn12 [Example 23, N-((6-amino-2,4-dimethylpyridin-3-yl)methyl)-1-((3-chloroquinolin-6-yl)methyl)imidazo[1,5-a]pyridine-3-carboxamide] | < 100 nM | –
5 | O=C(NCc1cc2c(Cl)c[nH]c2cc1F)c1nnc(Cc2ccc3ncc(Cl)cc3c2)o1 [Example 44, N-((3-chloro-6-fluoro-1H-indol-5-yl)methyl)-5-((3-chloroquinolin-6-yl)methyl)-1,3,4-oxadiazole-2-carboxamide] | 100 to 1000 nM | –
6 | Cc1nc(N)ccc1CNC(=O)c1coc(Cc2ccc3ncc(Cl)cc3c2)n1 [Example 83, N-((6-amino-2-methylpyridin-3-yl)methyl)-2-((3-chloroquinolin-6-yl)methyl)oxazole-4-carboxamide] | 100 to 1000 nM | –
7 | Cc1cc(N)nc(C)c1CNC(=O)c1cn(Cc2ccc3ncc(Cl)cc3c2)nc1CO [Example 92, N-((6-amino-2,4-dimethylpyridin-3-yl)methyl)-1-((3-chloroquinolin-6-yl)methyl)-3-(hydroxymethyl)-1H-pyrazole-4-carboxamide] | < 100 nM | –
8 | Cc1cc(N)nc(C)c1CNC(=O)c1oc(Cc2ccc3ncc(Cl)cc3c2)nc1C#N [Example 87, N-((6-amino-2,4-dimethylpyridin-3-yl)methyl)-2-((3-chloroquinolin-6-yl)methyl)-4-cyanooxazole-5-carboxamide] | < 100 nM | –
9 | Cc1cc(N)nc(C)c1CNC(=O)c1cn(Cc2ccc3ncc(Cl)cc3c2)c2ccccc12 [Example 11, N-((6-amino-2,4-dimethylpyridin-3-yl)methyl)-1-((3-chloroquinolin-6-yl)methyl)-1H-indole-3-carboxamide] | < 100 nM | –
10 | Cc1cc(N)nc(C)c1CNC(=O)c1cn(Cc2ccc3ncc(Cl)cc3c2)nc1C(F)F [Example 91, N-((6-amino-2,4-dimethylpyridin-3-yl)methyl)-1-((3-chloroquinolin-6-yl)methyl)-3-(difluoromethyl)-1H-pyrazole-4-carboxamide] | < 100 nM | –
11 | Cc1nc(N)ccc1CNC(=O)c1ncc(Cc2ccc3ncc(Cl)cc3c2)o1 [Example 84, N-((6-amino-2-methylpyridin-3-yl)methyl)-5-((3-chloroquinolin-6-yl)methyl)oxazole-2-carboxamide] | < 100 nM | –
12 | COc1ccc2c(n1)c(C(=O)NCc1c(C)cc(N)nc1C)cn2Cc1ccc2ncc(Cl)cc2c1 [Example 128, N-((6-amino-2,4-dimethylpyridin-3-yl)methyl)-1-((3-chloroquinolin-6-yl)methyl)-5-methoxy-1H-pyrrolo[3,2-b]pyridine-3-carboxamide] | – | IC50 [1]: 1000 to 10000 nM
13 | Cc1cc(N)nc(C)c1CNC(=O)c1c(C(F)(F)F)nnn1Cc1ccc2ncc(Cl)cc2c1 [Example 141, N-((6-amino-2,4-dimethylpyridin-3-yl)methyl)-1-((3-chloroquinolin-6-yl)methyl)-4-(trifluoromethyl)-1H-1,2,3-triazole-5-carboxamide] | > 10000 nM | –
14 | COc1cc2c(C(=O)NCc3c(C)cc(N)nc3C)cn(Cc3ccc4ncc(Cl)cc4c3)c2cn1 [Example 121, N-((6-amino-2,4-dimethylpyridin-3-yl)methyl)-1-((3-chloroquinolin-6-yl)methyl)-5-methoxy-1H-pyrrolo[2,3-c]pyridine-3-carboxamide] | < 100 nM | –
15 | Cc1cc(N)nc(C)c1CNC(=O)c1cc(C#N)nn1Cc1ccc2ncc(Cl)cc2c1 [Example 109, N-((6-amino-2,4-dimethylpyridin-3-yl)methyl)-1-((3-chloroquinolin-6-yl)methyl)-3-cyano-1H-pyrazole-5-carboxamide] | > 10000 nM | –
16 | Cc1cc(N)nc(C)c1CNC(=O)c1cn(Cc2ccc3ncc(Cl)cc3c2)c2nc[nH]c(=O)c12 [Example 132, N-((6-amino-2,4-dimethylpyridin-3-yl)methyl)-7-((3-chloroquinolin-6-yl)methyl)-4-oxo-4,7-dihydro-3H-pyrrolo[2,3-d]pyrimidine-5-carboxamide] | > 10000 nM | –
17 | Cc1cc(N)nc(C)c1CNC(=O)c1cnc(Cc2ccc3ncc(Cl)cc3c2)n1C [Example 105, N-((6-amino-2,4-dimethylpyridin-3-yl)methyl)-2-((3-chloroquinolin-6-yl)methyl)-1-methyl-1H-imidazole-5-carboxamide] | 1000 to 10000 nM | –
18 | Cc1nc(N)ccc1CNC(=O)c1cn(Cc2ccc3ncc(Cl)cc3c2)c2ccc(=O)[nH]c12 [Example 125, N-((6-amino-2-methylpyridin-3-yl)methyl)-1-((3-chloroquinolin-6-yl)methyl)-5-oxo-4,5-dihydro-1H-pyrrolo[3,2-b]pyridine-3-carboxamide] | < 100 nM | EC50 [2]: < 100 nM
19 | N#Cc1nn(Cc2cc(F)c3ncc(Cl)cc3c2)cc1C(=O)NCc1ccc2[nH]cc(Cl)c2c1F [Example 57, N-((3-chloro-4-fluoro-1H-indol-5-yl)methyl)-1-((3-chloro-8-fluoroquinolin-6-yl)methyl)-3-cyano-1H-pyrazole-4-carboxamide] | 100 to 1000 nM | –
20 | Cc1cc(N)nc(C)c1CNC(=O)c1ncc(Cc2ccc3ncc(Cl)cc3c2)[nH]1 [Example 41, N-((6-amino-2,4-dimethylpyridin-3-yl)methyl)-5-((3-chloroquinolin-6-yl)methyl)-1H-imidazole-2-carboxamide] | 100 to 1000 nM | –
21 | Cc1cc(N)nc(C)c1CNC(=O)c1cn(Cc2ccc3ncc(Cl)cc3c2)nc1CF [Example 93, N-((6-amino-2,4-dimethylpyridin-3-yl)methyl)-1-((3-chloroquinolin-6-yl)methyl)-3-(fluoromethyl)-1H-pyrazole-4-carboxamide] | < 100 nM | –
22 | Cc1cc(N)nc(C)c1CNC(=O)c1nc(C#N)n(Cc2ccc3ncc(Cl)cc3c2)n1 [Example 101, N-((6-amino-2,4-dimethylpyridin-3-yl)methyl)-1-((3-chloroquinolin-6-yl)methyl)-5-cyano-1H-1,2,4-triazole-3-carboxamide] | > 10000 nM | –
